In data set [1] the target is T1, Prostaglandin G/H synthase 1 (Ovis aries) (UniProt P05979).
T1 sequence (whole entry): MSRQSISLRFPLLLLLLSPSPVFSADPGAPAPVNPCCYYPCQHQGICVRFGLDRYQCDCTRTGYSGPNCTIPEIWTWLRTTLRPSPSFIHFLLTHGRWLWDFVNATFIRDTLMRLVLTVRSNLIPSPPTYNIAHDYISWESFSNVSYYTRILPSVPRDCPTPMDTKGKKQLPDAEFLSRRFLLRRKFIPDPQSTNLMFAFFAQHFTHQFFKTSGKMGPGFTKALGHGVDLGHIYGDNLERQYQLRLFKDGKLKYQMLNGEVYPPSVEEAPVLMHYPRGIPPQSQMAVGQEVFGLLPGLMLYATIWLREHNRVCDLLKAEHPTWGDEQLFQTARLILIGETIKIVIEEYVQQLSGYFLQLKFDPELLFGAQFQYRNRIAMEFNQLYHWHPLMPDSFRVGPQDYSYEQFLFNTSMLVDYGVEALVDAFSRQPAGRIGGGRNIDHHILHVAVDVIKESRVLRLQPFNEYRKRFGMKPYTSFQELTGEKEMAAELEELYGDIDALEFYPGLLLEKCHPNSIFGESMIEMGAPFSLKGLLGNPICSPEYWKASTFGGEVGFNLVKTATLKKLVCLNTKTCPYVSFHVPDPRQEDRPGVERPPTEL
In words: In vitro inhibition of Prostaglandin G/H synthase 1 (from ram seminal vesicles) at a concentration of […].

Data set [2] concerns Rattus norvegicus. In words: Evaluated in vivo for oral dose required to produce antiinflammatory activity in the rat paw edema assay (male Wistar rat). The data set is classed as functional.
Data set [3] relates to Rattus norvegicus. As to the kind of experiment: Evaluated in vivo for antiinflammatory activity at 30 mg/kg oral dose in the carrageenan-induced rat paw edema (male Wistar rat). It counts as functional.
Data set [4] in a line: Partition coefficient (logP). The conditions noted are these: octanol/water. It counts as physicochemical.
Data set [5] can be described thus: Pharmacokinetic parameter Tmax was determined in male Wistar rat after 100 mg/kg oral dose of the compound. It counts as ADME, organism-based. More on the design: dose 100 mg/kg, route oral. The conditions noted are these: in vivo.
Data set [6] can be described thus: Pharmacokinetic parameter Cmax was determined in male Wistar rat after 100 mg/kg oral dose of the compound. The conditions noted are these: in vivo. It counts as ADME, organism-based. On the set-up: dose 100 mg/kg, route oral.
The nature of data set [7]: Pharmacokinetic parameter AUC(area under curve) was determined in male Wistar rat after 100 mg/kg oral dose of the compound. The conditions noted are these: in vivo. More on the design: dose 100 mg/kg, route oral. The data set is classed as ADME, organism-based.
The target of data set [8] is T2, Prostaglandin G/H synthase 1 (Ovis aries, UniProt P05979).
T2 sequence (P05979 whole entry): T1 sequence (whole entry)
Description: In vitro inhibition against Prostaglandin G/H synthase 1 from ram seminal vesicles

In data set [9] the test system is Rattus norvegicus. As to the kind of experiment: Evaluated in vivo for antiinflammatory activity at 30 mg/kg oral dose in the carrageenan-induced rat paw edema (male Wistar rat); Not active. The data set is classed as functional, organism-based. More on the design: dose 30 mg/kg. In general terms: Carrageenan injected into the paw causes an acute inflammation.

The structures appear in SMILES notation. Calls of active or inactive are those of the source. The calls are words filed in the database; no cut-off is given here. Bounds are passed on as bounds.

Broadly, the inhibition is the drop in the measured response relative to a control, in per cent. Usually ED50 stands for the midpoint of the dose-response relation. High values mean a need for a large dose, low ones an effect at a small dose. The inhibition in vivo is how much of the control response was suppressed. As for `CCC(=O)[N-]S(=O)(=O)c1ccc(-n2nc(C(F)(F)F)cc2-c2ccc(OC)cc2)c(F)c1.[Na+]`, the inhibition in data set [1] amounted to 18%. The compound also gave an ED50 with Rattus norvegicus [2] of 6 mg/kg. In the data set on Rattus norvegicus [3], the inhibition in vivo at 30 mg/kg is 78%.
For orientation: logP means a log measure of how a compound divides between an organic and an aqueous phase. A lower logP goes with lower lipophilicity. Usually Tmax stands for the time from dosing to the highest level. Usually Cmax stands for the maximum level reached in the sampled fluid or tissue. For orientation: AUC means the area under the concentration-time curve, a measure of exposure. Lower therefore signals low exposure. `Cc1ccc(-c2cc(C(F)(F)F)nn2-c2ccc(S(N)(=O)=O)cc2)cc1` [CELECOXIB] came in with an ED50 in the data set on Rattus norvegicus [2] of 7.9 mg/kg. The logP in [4] was found to be 3.01. At 30 mg/kg the inhibition in vivo in the data set with Rattus norvegicus [3] was 49%. The Tmax in data set [5] turned out to be 3.25 h. The compound also returned a Cmax in data set [6] of 2470 ng/mL. The AUC in data set [7] worked out at 23200 ng·h/mL.
In turn, `CC(=O)NS(=O)(=O)c1ccc(-n2nc(C(F)(F)F)cc2-c2ccc(C)cc2)cc1` had an inhibition in [1] of 10%. In addition, the inhibition in vivo at 30 mg/kg with Rattus norvegicus [3] stood at 27%.
`CCC(=O)NS(=O)(=O)c1ccc(-n2nc(C(F)(F)F)cc2-c2ccc(SC)cc2)c(F)c1` came in with an inhibition in vivo at 30 mg/kg with Rattus norvegicus [3] of 37%.
Turning to `CCCC(=O)NS(=O)(=O)c1ccc(-n2nc(C(F)(F)F)cc2-c2ccc(SC)cc2)c(F)c1`, the inhibition in data set [1] stood at 34%. The inhibition in vivo at 30 mg/kg in the data set on Rattus norvegicus [3] worked out at 40%.
Usually IC50 stands for the point on the concentration scale where inhibition reaches its midpoint. Low values mean greater potency, high ones weaker potency. In turn, `COc1ccc(-c2cc(C(F)(F)F)nn2-c2ccc(S(N)(=O)=O)cc2F)cc1` displayed an IC50 in [8] of more than 30 µM. In addition, the inhibition in data set [1] was 13%. The logP in [4] is 3.14. This compound returned an inhibition in vivo at 30 mg/kg in the data set on Rattus norvegicus [3] of 26%. The Tmax in [5] turned out to be 7.5 h. This compound showed a Cmax in [6] of 3300 ng/mL. In data set [7], the AUC came to 46400 ng·h/mL.
`COc1ccc2c(c1)c(CC(=O)O)c(C)n2C(=O)c1ccc(Cl)cc1`: the inhibition in data set [1] is 100%.
`CCCC(=O)NS(=O)(=O)c1ccc(-n2nc(C(F)(F)F)cc2-c2ccc(OC)cc2)c(F)c1`: the inhibition in data set [1] is 32%. The compound further displayed an inhibition in vivo at 30 mg/kg in the data set on Rattus norvegicus [3] of 42%.
On to `CCC(=O)NS(=O)(=O)c1ccc(-n2nc(C(F)(F)F)cc2-c2ccc(C)cc2)cc1`, for which the inhibition in [1] amounted to 0%. This compound also registered an inhibition in vivo at 30 mg/kg in the data set on Rattus norvegicus [3] of 30%.
Turning to `COc1ccc(-c2cc(C(F)(F)F)nn2-c2ccc(S(N)(=O)=O)c(F)c2)cc1`, in data set [8], the IC50 was more than 170 µM. The inhibition in data set [1] stood at 0%. For the same compound, in the data set with Rattus norvegicus [2], the ED30 worked out at 1 mg/kg and the ED50 was 12.7 mg/kg. In addition, at 30 mg/kg the inhibition in vivo in the data set on Rattus norvegicus [3] was 52%.
As for `CCCC(=O)[N-]S(=O)(=O)c1ccc(-n2nc(C(F)(F)F)cc2-c2ccc(C)cc2)cc1.[Na+]`, the inhibition in data set [1] was 2%. The compound also had an ED50 with Rattus norvegicus [2] of 6.69 mg/kg. This compound registered an inhibition in vivo at 30 mg/kg in the data set on Rattus norvegicus [3] of 63%.
Compound `CC(=O)NS(=O)(=O)c1ccc(-n2nc(C(F)(F)F)cc2-c2ccc(F)cc2)c(F)c1` had an inhibition in data set [1] of 26%. This compound registered an inhibition in vivo at 30 mg/kg in the data set with Rattus norvegicus [3] of 44%.
Turning to `COc1ccc(-c2cc(C(F)(F)F)nn2-c2ccc(S(=O)(=O)NC(=O)C(C)(C)C)cc2F)cc1`, in data set [1], the inhibition stood at 16%. Also, in the data set with Rattus norvegicus [9], the inhibition result was “inactive”.
The compound `CCCC(=O)NS(=O)(=O)c1ccc(-n2nc(C(F)(F)F)cc2-c2ccc(F)cc2)c(F)c1` registered an inhibition in data set [1] of 0%. Besides, testing at 30 mg/kg in the data set on Rattus norvegicus [3] gave an inhibition in vivo of 22%.
In the data set on Rattus norvegicus [3], `CS(=O)(=O)c1ccc(C2=C(c3ccccc3)C(=O)OC2)cc1` [ROFECOXIB] yielded an inhibition in vivo at 30 mg/kg of 37%. Besides, the Tmax in data set [5] is 3 h. For the same compound, the highest level in data set [6] (Cmax) was 5610 ng/mL. For the same compound, in data set [7], the AUC is 57900 ng·h/mL.
For the compound `CSc1ccc(-c2cc(C(F)(F)F)nn2-c2ccc(S(N)(=O)=O)cc2F)cc1`, in data set [8], half-maximal inhibition (IC50) was put at 24.3 µM. Also, the inhibition in data set [1] amounted to 29%. This compound registered a logP in data set [4] of 3.81. In the data set on Rattus norvegicus [3], this compound registered an inhibition in vivo at 30 mg/kg of 33%. Further, the Tmax in [5] was found to be 1.26 h. This compound also displayed a Cmax in data set [6] of 3210 ng/mL. The compound also displayed an AUC in data set [7] of 6650 ng·h/mL.
Take `CCC(=O)NS(=O)(=O)c1ccc(-n2nc(C(F)(F)F)cc2-c2ccc(F)cc2)c(F)c1`: in data set [1], the inhibition was found to be 0%. In addition, in the data set on Rattus norvegicus [3], 30 mg/kg produced 38% inhibition in vivo.
In the case of `COc1ccc(-c2cc(C(F)(F)F)nn2-c2ccc(S(N)(=O)=O)c(C)c2)cc1`, in [1], the inhibition turned out to be 75%.
In the data set on Rattus norvegicus [2], `CCC(=O)[N-]S(=O)(=O)c1ccc(-c2c(-c3ccccc3)noc2C)cc1.[Na+]` [PARECOXIB SODIUM] showed an ED50 of 5 mg/kg.

(Values after ChEMBL document CHEMBL1145080, “Synthesis and cyclooxygenase-2 inhibiting property of 1,5-diarylpyrazoles with substituted benzenesulfonamide moiety as pharmacophore: Preparation of sodium salt for injectable formulation” (J Med Chem, 2003).)
